# From publication PMC9850959 (European journal of medicinal chemistry, 2019)
# “Also recorded” adds a separate entry of the source. Counter-ions that a name gives are not always drawn.
# Columns and labels:
# [1] = cited from earlier work
# [2] = cited from earlier work; remark: listed apart in the source
# human nSMase2 = biological target: T1, human nSMase2 (Homo sapiens, UniProt Q9NY59); test: fluorescence-based coupled nSMase2 assay; type: biochemical; conditions: for nSMase2 inhibitory activity (in words): compared with DPTIP or parent analog
# T1 sequence (Q9NY59 1-655): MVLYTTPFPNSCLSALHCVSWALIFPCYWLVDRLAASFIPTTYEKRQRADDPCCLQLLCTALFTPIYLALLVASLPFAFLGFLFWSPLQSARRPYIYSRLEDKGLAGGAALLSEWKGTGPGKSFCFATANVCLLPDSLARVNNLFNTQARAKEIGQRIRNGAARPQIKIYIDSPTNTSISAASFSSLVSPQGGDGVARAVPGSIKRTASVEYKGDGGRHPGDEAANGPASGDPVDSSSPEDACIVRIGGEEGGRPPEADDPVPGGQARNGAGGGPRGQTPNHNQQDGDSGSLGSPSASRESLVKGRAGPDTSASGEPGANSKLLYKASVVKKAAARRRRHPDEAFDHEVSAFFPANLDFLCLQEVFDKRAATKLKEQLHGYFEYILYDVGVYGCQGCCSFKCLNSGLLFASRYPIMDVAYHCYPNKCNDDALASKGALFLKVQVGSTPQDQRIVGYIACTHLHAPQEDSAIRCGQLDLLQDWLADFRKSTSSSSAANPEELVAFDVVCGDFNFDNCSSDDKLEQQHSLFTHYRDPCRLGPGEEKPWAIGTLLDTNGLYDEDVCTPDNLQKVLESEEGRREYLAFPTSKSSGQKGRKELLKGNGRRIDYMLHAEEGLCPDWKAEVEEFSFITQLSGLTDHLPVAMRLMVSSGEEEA
# [3] = tested on: AP, choline oxidase, and horseradish peroxidase; test: counter screen assay without nSMase2 and sphingomyelin, with phosphorylcholine; type: biochemical
# [4] = glucuronidation stability in mouse liver microsomes in the presence of UDPGA; type: in vitro ADME
# [5] = phase I metabolic stability in mouse liver microsomes; type: in vitro ADME
# [6] = phase I metabolic stability in human liver microsomes; type: in vitro ADME
# [7] = oral pharmacokinetics in mice; type: in vivo
# nSMase2 = conditions: with respect to sphingomyelin; cited from earlier work
# [8] = tested on: primary astrocyte cultures; conditions: cited from earlier work
# [9] = tested on: IL-1β-induced astrocyte-derived extracellular vesicle release; conditions: GFAP-GFP mice, brain injury model; cited from earlier work
smiles,measurement,setting,value
O=c1[nH]c(=S)[nH]c(-c2ccccc2)c1Cc1c(O)ccc2ccccc12 [Cambinol],solubility compared to GW4869 (in words),[1],better solubility compared to GW4869
same,metabolic stability (in words),[2],metabolically unstable
"COc1cc(-c2ncc[nH]2)cc(OC)c1O [Compound 3a, 4-(1H-Imidazol-2-yl)-2,6-dimethoxyphenol]",loss of inhibitory potency relative to DPTIP,human nSMase2,10 fold
"Oc1ccc(-c2nc(-c3ccccc3)c(-c3cccs3)[nH]2)cc1 [Compound 6b, 4-(4-Phenyl-5-(thiophen-2-yl)-1H-imidazol-2-yl)phenol]",loss of inhibitory potency relative to DPTIP,human nSMase2,100 fold
same,inhibition in the counter assay (in words),[3],no longer distinguishable
"COc1cc(-c2nc(-c3ccccc3)c(-c3cccs3)[nH]2)cc(O)c1O [Compound 6c, 3-Methoxy-5-(4-phenyl-5-(thiophen-2-yl)-1H-imidazol-2-yl)benzene-1,2-diol]",inhibition in the counter assay (in words),[3],potent inhibition
"Oc1cc(-c2nc(-c3ccccc3)c(-c3cccs3)[nH]2)cc(O)c1O [Compound 6d, 5-(4-Phenyl-5-(thiophen-2-yl)-1H-imidazol-2-yl)benzene-1,2,3-triol]",inhibition in the counter assay (in words),[3],potent inhibition
"Oc1c(Cl)cc(-c2nc(-c3ccccc3)c(-c3cccs3)[nH]2)cc1Cl [Compound 6e, 2,6-Dichloro-4-(4-phenyl-5-(thiophen-2-yl)-1H-imidazol-2-yl)phenol]",nSMase2 inhibitory activity (in words),human nSMase2,complete loss of activity
COc1cc(-c2nc(-c3ccccc3)c(-c3cccs3)[nH]2)cc(OC)c1OC [Compound 6g],nSMase2 inhibitory activity (in words),human nSMase2,completely inactive
Oc1ccccc1-c1nc(-c2ccccc2)c(-c2cccs2)[nH]1 [Compound 6i],nSMase2 inhibitory activity (in words),human nSMase2,complete loss of potency
Oc1cccc(-c2nc(-c3ccccc3)c(-c3cccs3)[nH]2)c1 [Compound 6j],nSMase2 inhibitory activity (in words),human nSMase2,complete loss of potency
"CC(C)Oc1cc(-c2nc(-c3ccccc3)c(-c3cccs3)[nH]2)cc(OC(C)C)c1O [Compound 9b, 2,6-Diisopropoxy-4-(4-phenyl-5-(thiophen-2-yl)-1H-imidazol-2-yl)phenol]",resistance to glucuronidation (in words),"[4]; mouse liver microsomes, UDPGA",completely resistant to glucuronidation; also recorded: complete resistance to glucuronidation
"Oc1c(OC2CCCC2)cc(-c2nc(-c3ccccc3)c(-c3cccs3)[nH]2)cc1OC1CCCC1 [Compound 9c, 2,6-Bis(cyclopentyloxy)-4-(5-phenyl-4-(thiophen-2-yl)-1H-imidazol-2-yl)phenol]",nSMase2 inhibitory activity (in words),human nSMase2,decrease in potency
"Oc1c(OCC(F)(F)F)cc(-c2nc(-c3ccccc3)c(-c3cccs3)[nH]2)cc1OCC(F)(F)F [Compound 12, 4-(4-Phenyl-5-(thiophen-2-yl)-1H-imidazol-2-yl)-2,6-bis(2,2,2-trifluoroethoxy)phenol]",phase I metabolic stability (in words),[5],metabolic stability was completely regained
same,phase I metabolic stability (in words),[6],metabolic stability was completely regained
"CC(C)(C)Oc1cc(-c2nc(-c3ccccc3)c(-c3cccs3)[nH]2)cc(OC(C)(C)C)c1O [Compound 16, 2,6-Di-t-butoxy-4-(4-phenyl-5-(thiophen-2-yl)-1H-imidazol-2-yl)phenol]",nSMase2 inhibitory activity (in words),human nSMase2,decrease in potency
"COc1cc(-c2nccs2)cc(OC)c1O [Compound 19, 2,6-Dimethoxy-4-(thiazol-2-yl)phenol]",nSMase2 inhibitory activity (in words),human nSMase2,substantial decrease in potency
"COc1cc(C2=NCCN2)cc(OC)c1O [Compound 22, 4-(4,5-Dihydro-1H-imidazol-2-yl)-2,6-dimethoxyphenol hydrochloride]",nSMase2 inhibitory activity (in words),human nSMase2,complete loss of potency
"COc1cc(-c2nc(C(C)C)c(C(C)C)[nH]2)cc(OC)c1O [Compound 25b, 4-(4,5-Diisopropyl-1H-imidazol-2-yl)-2,6-dimethoxyphenol hydrochloride]",phase I metabolic stability (in words),[5],metabolically stable
same,phase I metabolic stability (in words),[6],metabolically stable
same,remaining at 1 h,"[4]; mouse, liver microsomes, pH 7.5",< 20%
same,major metabolite in plasma,[7]; mouse plasma after oral administration,glucuronide
same,plasma exposure compared to DPTIP (in words),"[7]; oral administration, mice",higher plasma exposure; also recorded: superior plasma pharmacokinetics
same,CNS penetration (in words),"[7]; oral, mice",negligible CNS penetration
"COc1cc(-c2nc(-c3cccs3)c(-c3ccccc3)[nH]2)cc(OC)c1O [DPTIP, 2,6-dimethoxy-4-[4-phenyl-5-(2-thienyl)-1H-imidazol-2-yl]phenol]",phase I metabolic stability (in words),[5],stable
same,phase I metabolic stability (in words),[6],stable
same,loss of the parent compound,"[4]; mouse liver microsomes, UDPGA, 1 h",33%
same,mechanism of inhibition,nSMase2,noncompetitive
same,extracellular vesicle release (in words),[8],dose-dependently inhibit extracellular vesicle release
same,IL-1β-induced astrocyte-derived extracellular vesicle release (in words),[9],attenuate
O=C(/C=C\c1ccc(/C=C\C(=O)Nc2ccc(C3=NCCN3)cc2)cc1)Nc1ccc(C2=NCCN2)cc1 [GW4869],aqueous solubility (in words),[1],negligible aqueous solubility
